In PubChem BioAssay AID330 (DTP/NCI, 2004):
Values joined by “and” are separate entries in the source; they are usually repeats but may differ in a detail not shown here. Equal entries are not always repeated. Inconclusive results and toxic doses are left out. The calls were made as follows: active = survival T/C of 150% or more; inactive = T/C below 125% in these data.

Test system: P388 leukemia ip, CD2F1 mice, survival T/C
Assay: NCI In Vivo Anticancer Drug Screen. Data for tumor model P388 Leukemia (intraperitoneal) in CD2F1 (CDF1) mice
Conditions: endpoint: median survival time, higher = longer survival
In short: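 Mice carrying the transplanted tumor received test compound or vehicle. Survival was recorded in each group, and the value is the treated-group measurement divided by that of the vehicle-treated control group.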

[1] = dose: 50.0 mg/kg/injection, schedule: Q01DX005 (ip), vehicle: Klucel (hydroxypropylcellulose) (HPC)
[2] = dose: 100.0 mg/kg/injection, schedule: Q01DX005 (ip), vehicle: Klucel (hydroxypropylcellulose) (HPC)
[3] = dose: 200.0 mg/kg/injection, schedule: Q01DX005 (ip), vehicle: Klucel (hydroxypropylcellulose) (HPC)
[4] = dose: 60.0 mg/kg/injection, schedule: Q01DX005 (ip), vehicle: saline
[5] = dose: 120.0 mg/kg/injection, schedule: Q01DX005 (ip), vehicle: saline
[6] = dose: 240.0 mg/kg/injection, schedule: Q01DX005 (ip), vehicle: saline
[7] = dose: 6.25 mg/kg/injection, schedule: Q01DX009 (ip), vehicle: Klucel (hydroxypropylcellulose) (HPC)
[8] = dose: 50.0 mg/kg/injection, schedule: Q01DX009 (ip), vehicle: Klucel (hydroxypropylcellulose) (HPC)
[9] = dose: 50.0 mg/kg/injection, schedule: Q01DX009 (ip), vehicle: saline with Tween-80
[10] = dose: 100.0 mg/kg/injection, schedule: Q01DX009 (ip), vehicle: Klucel (hydroxypropylcellulose) (HPC)
[11] = dose: 100.0 mg/kg/injection, schedule: Q01DX009 (ip), vehicle: saline with Tween-80
[12] = dose: 200.0 mg/kg/injection, schedule: Q01DX009 (ip), vehicle: saline with Tween-80
[13] = dose: 60.0 mg/kg/injection, schedule: Q01DX005 (ip), vehicle: saline with Tween-80
[14] = dose: 120.0 mg/kg/injection, schedule: Q01DX005 (ip), vehicle: saline with Tween-80
[15] = dose: 240.0 mg/kg/injection, schedule: Q01DX005 (ip), vehicle: saline with Tween-80
[16] = dose: 50.0 mg/kg/injection, schedule: Q01DX005 (ip), vehicle: saline with Tween-80
[17] = dose: 100.0 mg/kg/injection, schedule: Q01DX005 (ip), vehicle: saline with Tween-80
[18] = dose: 200.0 mg/kg/injection, schedule: Q01DX005 (ip), vehicle: saline with Tween-80

Measured: T/C

Cc1ccc(S(=O)(=O)C(CCC(=O)c2ccccc2)(CCC(=O)c2ccccc2)[N+](=O)[O-])cc1
inactive: [1] 91 % of control | [2] 92 % of control | [3] 87 % of control

CCOC(=O)C1=C(C(C)=O)C(c2cccc([N+](=O)[O-])c2)C(C(C)=O)=C(C(=O)OCC)N1
inactive: dose: 60.0 mg/kg/injection, schedule: Q01DX005 (ip), vehicle: Klucel (hydroxypropylcellulose) (HPC) 98 % of control | dose: 120.0 mg/kg/injection, schedule: Q01DX005 (ip), vehicle: Klucel (hydroxypropylcellulose) (HPC) 88 % of control | dose: 240.0 mg/kg/injection, schedule: Q01DX005 (ip), vehicle: Klucel (hydroxypropylcellulose) (HPC) 95 % of control

CCC12CCCN3CCC4(c5cccc(O)c5NC4CC1)C32 (centres undefined)
inactive: [4] 101 % of control | [5] 94 % of control | [6] 101 % of control

c1ccc(CN2COc3c(ccc4ccccc34)C2)cc1
inactive: dose: 100.0 mg/kg/injection, schedule: Q04DX003 (ip), vehicle: Klucel (hydroxypropylcellulose) (HPC) 97 % of control | dose: 200.0 mg/kg/injection, schedule: Q04DX003 (ip), vehicle: Klucel (hydroxypropylcellulose) (HPC) 102 % of control | dose: 400.0 mg/kg/injection, schedule: Q04DX003 (ip), vehicle: Klucel (hydroxypropylcellulose) (HPC) 96 % of control

Cc1ccc(S(=O)(=O)N/N=C/c2ccccc2Cl)cc1
inactive: [7] 94 % of control | dose: 12.5 mg/kg/injection, schedule: Q01DX009 (ip), vehicle: Klucel (hydroxypropylcellulose) (HPC) 98 % of control | dose: 25.0 mg/kg/injection, schedule: Q01DX009 (ip), vehicle: Klucel (hydroxypropylcellulose) (HPC) 106 % of control | dose: 25.0 mg/kg/injection, schedule: Q01DX009 (ip), vehicle: saline with Tween-80 106 % of control | [8] 104 % of control | [9] 104 % of control | [10] 106 % of control | [11] 106 % of control | [12] 100 % of control

CC(=O)OCC1OC(Nc2[nH]c(=O)n(C)c(=O)c2C(=O)CCl)C(OC(C)=O)C(OC(C)=O)C1OC(C)=O (centres undefined)
inactive: [13] 114 % of control | [14] 105 % of control | [15] 124 % of control

N#CCc1ccccc1C#N
inactive: dose: 12.5 mg/kg/injection, schedule: Q01DX005 (ip), vehicle: saline with Tween-80 100 % of control | dose: 25.0 mg/kg/injection, schedule: Q01DX005 (ip), vehicle: saline with Tween-80 99 % of control | [16] 101 % of control

Brc1c(-c2ccccc2)nc2ccccc2c1Br
inactive: [16] 103 % of control | [17] 97 % of control | [18] 94 % of control

C/C=C(\C)C(=O)OC1C2C(C)=CC(O)C(O)C2(C)C2C3(O)OCC24C(CC(=O)OC14)C(C)C3O (centres undefined)
inactive: dose: 0.25 mg/kg/injection, schedule: Q01DX009 (ip), vehicle: Klucel (hydroxypropylcellulose) (HPC) 109 % of control | dose: 0.5 mg/kg/injection, schedule: Q01DX009 (ip), vehicle: Klucel (hydroxypropylcellulose) (HPC) 101 % of control | dose: 1.0 mg/kg/injection, schedule: Q01DX009 (ip), vehicle: Klucel (hydroxypropylcellulose) (HPC) 104 % of control | dose: 2.0 mg/kg/injection, schedule: Q01DX009 (ip), vehicle: Klucel (hydroxypropylcellulose) (HPC) 104 % of control

C=CCOC(=O)C1=C(O[Si]C(C)(C)C)CCCC1
inactive: [9] 96 % of control | [11] 99 % of control | [12] 109 % of control

CC[Se](CC)CC.CC[Se](CC)CC.C[CH2][Ge]([CH2]C)[O][Ge]([CH2]C)[CH2]C
inactive: dose: 3.12 mg/kg/injection, schedule: Q01DX009 (ip), vehicle: saline 99 % of control and 95 % of control | dose: 6.25 mg/kg/injection, schedule: Q01DX009 (ip), vehicle: saline 96 % of control (2×) and 97 % of control | dose: 12.5 mg/kg/injection, schedule: Q01DX009 (ip), vehicle: saline 101 % of control and 107 % of control and 96 % of control | dose: 25.0 mg/kg/injection, schedule: Q01DX009 (ip), vehicle: saline 117 % of control and 118 % of control

Cc1onc(-c2ccccc2Cl)c1C1=N/C(=C/c2cc(Cl)cc(Cl)c2O)C(=O)O1
inactive: [8] 114 % of control | [10] 104 % of control | dose: 200.0 mg/kg/injection, schedule: Q01DX009 (ip), vehicle: Klucel (hydroxypropylcellulose) (HPC) 96 % of control

Cc1ccc(S(=O)(=O)Nc2cc(C)cc(CCNC=O)c2C)cc1
inactive: [9] 104 % of control | [11] 94 % of control | [12] 99 % of control | dose: 400.0 mg/kg/injection, schedule: Q01DX009 (ip), vehicle: saline with Tween-80 94 % of control

C/C(=N\N=N\c1ccc(C)s1)c1ccccc1
inactive: dose: 50.0 mg/kg/injection, schedule: Q01DX005 (ip), vehicle: Klucel + Tween-80 105 % of control | dose: 100.0 mg/kg/injection, schedule: Q01DX005 (ip), vehicle: Klucel + Tween-80 105 % of control | dose: 200.0 mg/kg/injection, schedule: Q01DX005 (ip), vehicle: Klucel + Tween-80 97 % of control

O=C1CC2c3ccccc3CCN2C2=C1CCC2 (centres undefined)
inactive: [16] 96 % of control | [17] 104 % of control

C/C(=N\OC(=O)CNOC(C)(C)C)c1ccccn1
inactive: dose: 100.0 mg/kg/injection, schedule: Q01DX001 (ip), vehicle: saline with Tween-80 103 % of control | dose: 200.0 mg/kg/injection, schedule: Q01DX001 (ip), vehicle: saline with Tween-80 99 % of control | dose: 400.0 mg/kg/injection, schedule: Q01DX001 (ip), vehicle: saline with Tween-80 99 % of control

Cc1c(C(N)=O)c(NC=O)n(-c2ccccc2)c1C
inactive: [13] 100 % of control | [14] 99 % of control | [15] 93 % of control

O=C(COc1nccc2nc(-c3ccccc3)cn12)c1ccccc1
inactive: dose: 1.56 mg/kg/injection, schedule: Q01DX009 (ip), vehicle: Klucel (hydroxypropylcellulose) (HPC) 96 % of control | dose: 3.12 mg/kg/injection, schedule: Q01DX009 (ip), vehicle: Klucel (hydroxypropylcellulose) (HPC) 89 % of control | [7] 89 % of control and 92 % of control | dose: 12.5 mg/kg/injection, schedule: Q01DX001 (ip), vehicle: Klucel (hydroxypropylcellulose) (HPC) 95 % of control | dose: 25.0 mg/kg/injection, schedule: Q01DX001 (ip), vehicle: Klucel (hydroxypropylcellulose) (HPC) 95 % of control | dose: 50.0 mg/kg/injection, schedule: Q01DX001 (ip), vehicle: Klucel (hydroxypropylcellulose) (HPC) 96 % of control

NC(=S)n1nc(-c2ccccc2)c(N=Nc2ccccc2[N+](=O)[O-])c1-c1ccccc1
inactive: dose: 100.0 mg/kg/injection, schedule: Q04DX002 (ip), vehicle: Klucel (hydroxypropylcellulose) (HPC) 99 % of control | dose: 200.0 mg/kg/injection, schedule: Q04DX002 (ip), vehicle: Klucel (hydroxypropylcellulose) (HPC) 110 % of control | dose: 400.0 mg/kg/injection, schedule: Q04DX002 (ip), vehicle: Klucel (hydroxypropylcellulose) (HPC) 105 % of control

CC1=C(C)C(C#N)N(C)CC1 (centres undefined)
inactive: dose: 3.75 mg/kg/injection, schedule: Q01DX005 (ip), vehicle: Klucel (hydroxypropylcellulose) (HPC) 102 % of control | dose: 7.5 mg/kg/injection, schedule: Q01DX005 (ip), vehicle: Klucel (hydroxypropylcellulose) (HPC) 100 % of control

ON(CCc1ccncc1)CCc1ccncc1
inactive: [16] 100 % of control | [17] 98 % of control | [18] 100 % of control

Oc1c(Cl)cc(Cl)cc1C=NCCN(CCN=Cc1cc(Cl)cc(Cl)c1O)CCN=Cc1cc(Cl)cc(Cl)c1O
inactive: [1] 98 % of control | [2] 92 % of control | [3] 101 % of control

CCOC(=O)CC(COC)C(Br)(C(=O)OCC)C(=O)OCC (centres undefined)
inactive: dose: 1.56 mg/kg/injection, schedule: Q01DX009 (ip), vehicle: water 104 % of control | dose: 3.13 mg/kg/injection, schedule: Q01DX009 (ip), vehicle: water 111 % of control | dose: 6.25 mg/kg/injection, schedule: Q01DX009 (ip), vehicle: water 107 % of control | dose: 12.5 mg/kg/injection, schedule: Q01DX009 (ip), vehicle: water 114 % of control | dose: 25.0 mg/kg/injection, schedule: Q01DX009 (ip), vehicle: water 113 % of control

CC(C(=O)O)c1ncnn1-c1ccccc1 (centres undefined)
inactive: [4] 105 % of control | [5] 104 % of control | [6] 102 % of control
